pEC50: −log10 of the molar value. Numbered stars: 1 amine (or outer) side, 2 acyl side, 3 side chain; on linkers, the order of the positions; unused ones are H or OH. Side chains are listed from the residue outwards. Peptide text beside a SMILES is read from it. * marks the point of attachment. X1 = O=C(CCCCCCCCCCCCCCCc1nnn[nH]1)NS(=O)(=O)CCCC(=O)*; C18 diacid = O=C(O)CCCCCCCCCCCCCCCCC(=O)*; C16 diacid = O=C(O)CCCCCCCCCCCCCCC(=O)*; γGlu = O=C(O)[C@H](CCC(=O)[*:2])N[*:1]; AEEA = NCCOCCOCC(=O)O
Columns and labels:
[1] = Assay (X) Chemical stability assessment by RP-UPLC; assay type: physicochemical; conditions: pH 8.15, 14 days at 37° C. vs 5° C., 333 μM
Description: Chemical Stability Assessment
Lyophilized samples were dissolved in buffer (see below for detailed compositions) to a final concentration of 333 μM and a pH of 8.15, and were incubated for 14 days at 5° C. and 37° C. followed by RP-UPLC analysis. Purity was defined as the area percentage of the main peak in relation to the total area of all integrated peaks in each chromatogram. Purity loss after 14 days at 37° C. was determined as the difference in purity between the samples incubated at 5° C. and 37° C., divided by the purity of the sample after incubation for 14 days at 5° C.
RP-UPLC analysis was performed using a Waters BEH130 2.1 mm×150 mm, 1.7 μm column operated at 50° C. and a flow rate of 0.4 mL/min using a mobile phase system consisting of typically A: 50 mM Phosphate, 10 w/w % Acetonitrile pH 3 and B: 80 v/v Acetonitrile. UV-detection was performed at 215 nm. The typical gradient profile used for most of the samples is shown below.
For some individual analogues eluting at substantially different retention times compared with the majority of analogues, some adjustments to the gradient profile were made to better enable purity assessment comparison across samples. Also the composition of the channel B mobile phase component was in some of the analyses exchanged for a 90 v/v % Acetonitrile solvent solution in an attempt to better handle carry-over of material from one injection to the next in the sequence. This was however compensated for by recalculating the gradient profile appropriately.
Buffer: • 50 mM Dinatriumphosphatdihydrat • 184 mM Propylenglycol • 58 mM Phenol • pH adjusted to 8.15 with H3PO4. In cases where pH was adjusted to 8.15 after re-suspension of analogues, 0.2 M NaOH was used. Assay (XI) Pharmacokinetic Study in Minipigs

glucagon receptor = target: T1, glucagon receptor (Homo sapiens, UniProt P47871); test: Assay (I) Glucagon activity (cAMP biosensor, FLIPR); assay type: cell-based
T1 construct: expressed in transfected cells
T1 sequence (P47871 26-477): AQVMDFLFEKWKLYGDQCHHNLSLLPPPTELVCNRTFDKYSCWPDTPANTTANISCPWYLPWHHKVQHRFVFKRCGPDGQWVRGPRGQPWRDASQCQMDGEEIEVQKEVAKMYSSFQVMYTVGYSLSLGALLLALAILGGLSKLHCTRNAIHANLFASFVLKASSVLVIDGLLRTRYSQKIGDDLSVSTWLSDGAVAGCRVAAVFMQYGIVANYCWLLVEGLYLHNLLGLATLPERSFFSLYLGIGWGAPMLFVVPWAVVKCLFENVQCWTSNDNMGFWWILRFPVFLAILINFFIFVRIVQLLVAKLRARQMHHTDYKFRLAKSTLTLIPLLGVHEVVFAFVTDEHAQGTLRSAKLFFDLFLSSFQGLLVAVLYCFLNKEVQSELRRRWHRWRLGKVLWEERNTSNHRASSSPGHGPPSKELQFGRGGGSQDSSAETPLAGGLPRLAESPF

Compound | Chemical stability [Purity loss/14 days 37 C.] [1] [%] | pEC50 (glucagon receptor)
CC(C)C[C@H](NC(=O)[C@H](CC(=O)O)NC(=O)[C@H](CC(C)C)NC(=O)[C@H](Cc1ccc(O)cc1)NC(=O)[C@H](CCCNC(=N)N)NC(=O)[C@H](CO)NC(=O)[C@H](Cc1ccc(O)cc1)NC(=O)[C@H](CC(=O)O)NC(=O)[C@H](CO)NC(=O)[C@@H](NC(=O)[C@H](Cc1ccccc1)NC(=O)[C@@H](NC(=O)CNC(=O)[C@H](CCC(N)=O)NC(=O)[C@H](CO)NC(=O)[C@@H](N)Cc1c[nH]cn1)[C@@H](C)O)[C@@H](C)O)C(=O)N[C@@H](CCCNC(=N)N)C(=O)N[C@@H](CCCNC(=N)N)C(=O)N[C@@H](C)C(=O)N[C@@H](CCC(N)=O)C(=O)N[C@@H](CC(=O)O)C(=O)N[C@@H](Cc1ccccc1)C(=O)N[C@H](C(=O)N[C@@H](CCCCNC(=O)CC[C@H](NC(=O)CC[C@H](NC(=O)CC[C@H](NC(=O)COCCOCCNC(=O)COCCOCCNC(=O)CC[C@H](NC(=O)CCCCCCCCCCCCCCCCC(=O)O)C(=O)O)C(=O)O)C(=O)O)C(=O)O)C(=O)N[C@@H](Cc1c[nH]c2ccccc12)C(=O)N[C@@H](CC(C)C)C(=O)N[C@@H](CC(C)C)C(=O)N[C@@H](CO)C(=O)N[C@H](C(=O)O)[C@@H](C)O)C(C)C [Example 45, N^ε24-[(4S)-4-carboxy-4-[[(4S)-4-carboxy-4-[[(4S)-4-carboxy-4-[[2-[2-[2-[[2-[2-[2-[[(4S)-4-carboxy-4-(17-carboxyheptadecanoylamino)butanoyl]amino]ethoxy]ethoxy]acetyl]amino]ethoxy]ethoxy]acetyl]amino]butanoyl]amino]butanoyl]amino]butanoyl]-[Arg12,Leu16,Lys24,Leu27,Ser28]-Glucagon] (H-HSQGTFTSDYSRYLDLRRAQDFVK([γGlu-γGlu-γGlu-AEEA-AEEA-γGlu-C18 diacid])WLLST-OH) | 3.3 | 9.61
CC(C)C[C@H](NC(=O)[C@H](Cc1ccc(O)cc1)NC(=O)[C@H](CCCCN)NC(=O)[C@H](CO)NC(=O)[C@H](Cc1ccc(O)cc1)NC(=O)[C@H](CC(=O)O)NC(=O)[C@H](CO)NC(=O)[C@@H](NC(=O)[C@H](Cc1ccccc1)NC(=O)[C@@H](NC(=O)CNC(=O)[C@H](CCC(N)=O)NC(=O)[C@H](CO)NC(=O)[C@@H](N)Cc1c[nH]cn1)[C@@H](C)O)[C@@H](C)O)C(=O)N[C@@H](CCC(=O)O)C(=O)N[C@@H](CO)C(=O)N[C@@H](CCCNC(=N)N)C(=O)N[C@@H](CCCNC(=N)N)C(=O)N[C@@H](C)C(=O)N[C@@H](CCC(N)=O)C(=O)N[C@@H](CC(=O)O)C(=O)N[C@@H](Cc1ccccc1)C(=O)N[C@H](C(=O)N[C@@H](CCCCNC(=O)CC[C@H](NC(=O)CC[C@H](NC(=O)COCCOCCNC(=O)CCCS(=O)(=O)NC(=O)CCCCCCCCCCCCCCCc1nnn[nH]1)C(=O)O)C(=O)O)C(=O)N[C@@H](Cc1c[nH]c2ccccc12)C(=O)N[C@@H](CC(C)C)C(=O)N[C@@H](CC(C)C)C(=O)N[C@@H](CO)C(=O)N[C@H](C(=O)O)[C@@H](C)O)C(C)C [Example 66, N^ε24-[(4S)-4-carboxy-4-[[(4S)-4-carboxy-4-[[2-[2-[2-[4-[16-(1H-tetrazol-5-yl)hexadecanoylsulfarnoyl]butanoylamino]ethoxy]ethoxy]acetyl]amino]butanoyl]amino]butanoyl][Glu15,Lys24,Leu27,Ser28]-Glucagon] (H-HSQGTFTSDYSKYLESRRAQDFVK([γGlu-γGlu-AEEA-X1])WLLST-OH; N-terminus and C-terminus assumed) | 8.3 | 9.40
CC(C)C[C@H](NC(=O)[C@H](CC(=O)O)NC(=O)[C@H](CC(C)C)NC(=O)[C@H](Cc1ccc(O)cc1)NC(=O)[C@H](CCCNC(=N)N)NC(=O)[C@H](CO)NC(=O)[C@H](Cc1ccc(O)cc1)NC(=O)[C@H](CC(=O)O)NC(=O)[C@H](CO)NC(=O)[C@@H](NC(=O)[C@H](Cc1ccccc1)NC(=O)[C@@H](NC(=O)CNC(=O)[C@H](CCC(N)=O)NC(=O)[C@H](CO)NC(=O)[C@@H](N)Cc1c[nH]cn1)[C@@H](C)O)[C@@H](C)O)C(=O)N[C@@H](CCCNC(=N)N)C(=O)N[C@@H](CCCNC(=N)N)C(=O)N[C@@H](C)C(=O)N[C@@H](CCC(N)=O)C(=O)N[C@@H](CC(=O)O)C(=O)N[C@@H](Cc1ccccc1)C(=O)N[C@H](C(=O)N[C@@H](CCCCNC(=O)CC[C@H](NC(=O)CC[C@H](NC(=O)CC[C@H](NC(=O)CCCCCCCCCCCCCCCCC(=O)O)C(=O)O)C(=O)O)C(=O)O)C(=O)N[C@@H](Cc1c[nH]c2ccccc12)C(=O)N[C@@H](CC(C)C)C(=O)N[C@@H](CC(C)C)C(=O)N[C@@H](CO)C(=O)N[C@H](C(=O)O)[C@@H](C)O)C(C)C [Example 29, N^ε24-[(4S)-4-carboxy-4-[[(4S)-4-carboxy-4-[[(4S)-4-carboxy-4-(17-carboxyheptadecanoylamino)butanoyl]amino]butanoyl]amino]butanoyl]-[Arg^12,Leu^16,Lys^24,Leu^27,Ser^28]-Glucagon] (H-HSQGTFTSDYSRYLDLRRAQDFVK([γGlu-γGlu-γGlu-C18 diacid])WLLST-OH) | 2.8 | 8.88
CC(C)C[C@H](NC(=O)[C@H](Cc1ccc(O)cc1)NC(=O)[C@H](CCCNC(=N)N)NC(=O)[C@H](CO)NC(=O)[C@H](Cc1ccc(O)cc1)NC(=O)[C@H](CC(=O)O)NC(=O)[C@H](CO)NC(=O)[C@@H](NC(=O)[C@H](Cc1ccccc1)NC(=O)[C@@H](NC(=O)CNC(=O)[C@H](CCC(N)=O)NC(=O)[C@H](CO)NC(=O)[C@@H](N)Cc1c[nH]cn1)[C@@H](C)O)[C@@H](C)O)C(=O)N[C@@H](CC(=O)O)C(=O)N[C@@H](CCC(=O)O)C(=O)N[C@@H](CCCNC(=N)N)C(=O)N[C@@H](CCCNC(=N)N)C(=O)N[C@@H](C)C(=O)N[C@@H](CCC(N)=O)C(=O)N[C@@H](CC(=O)O)C(=O)N[C@@H](Cc1ccccc1)C(=O)N[C@H](C(=O)N[C@@H](CCCCNC(=O)CC[C@H](NC(=O)CC[C@H](NC(=O)COCCOCCNC(=O)COCCOCCNC(=O)CC[C@H](NC(=O)CCCCCCCCCCCCCCC(=O)O)C(=O)O)C(=O)O)C(=O)O)C(=O)N[C@@H](Cc1c[nH]c2ccccc12)C(=O)N[C@@H](CC(C)C)C(=O)N[C@@H](CC(C)C)C(=O)N[C@@H](CO)C(=O)N[C@H](C(=O)O)[C@@H](C)O)C(C)C [Example 94, N^ε24-[(4S)-4-carboxy-4-[[(4S)-4-carboxy-4-[[2-[2-[2-[[2-[2-[2-[[(4S)-4-carboxy-4-(15-carboxypentadecanoylamino)butanoyl]amino]ethoxy]ethoxy]acetyl]amino]ethoxy]ethoxy]acetyl]amino]butanoyl]amino]butanoyl]-[Arg12,Glu16,Lys24,Leu27,Ser28]-Glucagon] (H-HSQGTFTSDYSRYLDERRAQDFVK([γGlu-γGlu-AEEA-AEEA-γGlu-C16 diacid])WLLST-OH; N-terminus and C-terminus assumed) | 8.8 | 10.54
CC(C)C[C@H](NC(=O)[C@H](Cc1c[nH]c2ccccc12)NC(=O)[C@H](CCCCNC(=O)CC[C@H](NC(=O)CC[C@H](NC(=O)COCCOCCNC(=O)COCCOCCNC(=O)CC[C@H](NC(=O)CCCCCCCCCCCCCCCCC(=O)O)C(=O)O)C(=O)O)C(=O)O)NC(=O)[C@@H](NC(=O)[C@H](Cc1ccccc1)NC(=O)[C@H](CC(=O)O)NC(=O)[C@H](CCC(N)=O)NC(=O)[C@H](C)NC(=O)[C@H](CCCNC(=N)N)NC(=O)[C@H](CCCNC(=N)N)NC(=O)[C@@H](NC(=O)[C@H](CC(=O)O)NC(=O)[C@H](CC(C)C)NC(=O)[C@H](Cc1ccc(O)cc1)NC(=O)[C@H](CCCCN)NC(=O)[C@H](CO)NC(=O)[C@H](Cc1ccc(O)cc1)NC(=O)[C@H](CC(=O)O)NC(=O)[C@H](CO)NC(=O)[C@@H](NC(=O)[C@H](Cc1ccccc1)NC(=O)[C@@H](NC(=O)CNC(=O)[C@H](CCC(N)=O)NC(=O)[C@H](CO)NC(=O)[C@@H](N)Cc1c[nH]cn1)[C@@H](C)O)[C@@H](C)O)[C@@H](C)O)C(C)C)C(=O)N[C@@H](CC(C)C)C(=O)N[C@@H](CO)C(=O)N[C@H](C(N)=O)[C@@H](C)O [Example 39, N^ε24-[(4S)-4-carboxy-4-[[(4S)-4-carboxy-4-[[2-[2-[2-[[2-[2-[2-[[(4S)-4-carboxy-4-(17-carboxyheptadecanoylamino)butanoyl]amino]ethoxy]ethoxy]acetyl]amino]ethoxy]ethoxy]acetyl]amino]butanoyl]amino]butanoyl]-[Thr16,Lys24,Leu27,Ser28]-Glucagon amide] | 7.8 | 10.41

Source: US9486506B2 (Novo Nordisk A/S, priority 2011, dated 2016)
